Source: US9340788B2 (priority 2007, dated 2016)
“Also recorded” adds a separate entry of the source.

Assays:
PI3-K/Akt signaling = assay type: cell-based, human
Description: (A) HEL cells stimulated with HCMV or PDGF-AA were subjected to immunoprecipitation and western blot analyses with indicated antibodies. (B) Phospho-PDGFRα ELISA of cells+/−pretreatment with IMC-3G3 (10 μg/ml, 2 h) followed by HCMV (MOI=1) or PDGF (10 ng/ml) for 10 min. Mean values (n=6)±S.D are shown. (C) Western blot of HEL mock, HCMV, or PDGF-AA stimulated (10 min), +/−IMC-3G3 (2 μg/ml) or Gleevec® (Imatinib) (100 nM). The same membrane was used for p-Akt^Ser 473 and Akt.
HEL cells pretreated with blocking reagents (as indicated; 30 min, 37 C) were stimulated for 10 min with HCMV, PDGF-AA (5 ng/ml), or mock-treated. Cell lysates were collected in RIPA buffer (supplemented with protease and phosphatase inhibitors) and subjected to Western blot analysis.
For stimulation experiments, cells were serum-starved for 24 h, followed by stimulation with HCMV (MOI of 0.5), PDGF-AA (5-10 ng/ml, from R&D Systems), or mock, for 10 minutes. In some cases, cells were pre-treated with IMC-3G3 (ImClone Inc.) at 10 g/ml (2 or 12 h) or Gleevec® (100 nM, 1 h) prior to HCMV exposure. Cell lysates were analyzed by SDS-PAGE. Antibodies used were as follows: polyclonal anti-PDGFRα ( 1/500), phosphor-Tyrosine clone 4G10 ( 1/1000), and monoclonal anti-p85 PI3-K ( 1/1000), (Upstate Biotechnology), anti HCMV IE1 MAB810 (Chemicon; 1/1000), anti HCMV pp65 (Novocastra, 1/1000), anti-phosphor-PDGFRα ( 1/500, pTyr 754), anti-phosphor-Akt (Ser 473, 1/1000) and total Akt ( 1/1000; all from Cell Signaling). Anti-actin polyclonal control antibody was used ( 1/500, Sigma). Immunoprecipitations were performed using protein G (Pierce) according to manufacturer's instructions.

HCMV [1] = experiment: HCMV pp65 western blot in HEL cells; assay type: cell-based, Human cytomegalovirus; conditions: antibody 10 ng/ml 30 min or AG 1295 20 pM, Towne HCMV 10 min at 37 C
Description: HEL cells were transfected with siRNA against the PI3K p110α catalytic subunit (a mixture of 4 RNAi oligos, “smart pool” from Dharmacon) or non-targeting, control siRNA (Dharmacon) for 48 h prior to infection with HCMV (MOI of 1) for 1 hour. Cells were washed and cultured for 2 h-6 days. a. […] The mean number of IE1 positive cells is reduced by ˜50% in the PI3 Kp110α knockdown cultures—panel c**, p<0.01. PI3K p110α knock down is also significant (b, left panels, red fluorescence). However, unlike cells that lack a functional PDGFRα, PI3K p110α knock down cells are capable of producing infectious virus as shown by IE1 staining of the secondary infected cultures (panel d). A 10% decrease in infectious virus production in the cells treated with p110α siRNA is insignificant*, bars represent SD, […], panel c. Experiments were repeated twice, all conditions were assayed in triplicate. Similar results were obtained with both Towne-infected cultures (illustrated in this figure) and CMV-GFP.
Upper panel: HEL cells pretreated with anti-human PDGFRα antibody (10 ng/ml, for 30 min, clone AF-307-NA from R&D; lanes 1 and 4) or with AG 1295 (lane 3, […], from Calbiochem) were stimulated with Towne HCMV (lanes 2-4) or Mock infected (lane 1) for 10 min at 37 C. […]
Western Blot, Immunoprecipitation, and Immunofluorescence analyses. […] Cell lysates were analyzed by SDS-PAGE. […]

HCMV [2] = experiment: IE1 immunofluorescence of HCMV infected HEL cells; assay type: cell-based, Human cytomegalovirus; conditions: HEL; antibody 1 h or AG1295 15 min before HCMV; 1 h at 37 C plus additional 6 h
Description: HEL cells were transfected with PDGFRα siRNA (smart pool, Dharmacon) or non-targeting control siRNA (Dharmacon) for 48-60 hours when maximum protein knockdown is achieved (panels a and b. Also see FIG. 3d). Cells were then infected with Towne, AD169, TR, or CMV-GFP strains of HCMV for 1 hour, washed and returned to 37° C. in complete growth media. Supernatants obtained from these cultures were used in subsequent assays measuring production of infectious virus as described below. […] Cultures infected with supernatants from GFP-CMV treated cells were monitored daily under the fluorescence microscope. Over 40% of the control siRNA treated cells expressed CMV-GFP 1 day post infection (c, 1 dpi) and this number increased to 100% by day 6 (c, 6 dpi). Note the appearance of “plaques”-like groups of cells in control siRNA transfected cells (c, 3 and 6 dpi). […]
Measurements of Infectious Virus Production. […] A duplicate set of cultures was analyzed by immunofluorescence at 12 hours post infection (hpi) to assess percent of IE1 positive cells, as a measure of “primary infection”. […] 12 hpi cells were stained for IE1 and IE1 positive cells were counted amongst a total of 100 cells/low magnification microscopic field, 4 fields/condition. […] Where indicated, CMV-GFP infected cells were monitored daily under fluorescence microscope. […]

HCMV [3] = experiment: HCMV IE1 / viral gene expression, western blot of infected cells; assay type: cell-based, Human cytomegalovirus; conditions: for HCMV IE1 gene expression: IMC-3G3 10 μg/ml 12 h or Gleevec 100 nM 1 h pre-treatment, western blot
Description: (A) pp65 immunofluorescence after HCMV treatment (1 h, 4° C.) followed by shifting to 37° C. for indicated times. Rows represent (top to bottom): HEL, PDGFRα null fibroblasts, parental fibroblasts, null fibroblasts overexpressing hPDGFRα, HEL transfected with control, or PDGFRα siRNA. Nuclei were stained with DAPI. (B) Average±S.D. pp65 positive/100 cells counted in triplicate from (A). (C) Mock or HCMV infected cells were analyzed by western blotting with the indicated antibodies. Lanes 1-4 indicate HEL, 325S, PDGFRα null and PDGFRα null over-expressing hPDGFRα, respectively. (D) HEL transfected with control or PDGFRα siRNA were mock (lanes 1) or HCMV-treated (lanes 2) and subjected to western blots with indicated antibodies. (E) Western blot of HEL and U87 lysates after infection with mock (lanes 1), HCMV (lanes 2), or HCMV pretreated with IMC-3G3 (10 μg/ml, 12 h, lanes 3) or Gleevec (100 nM, 1 h, lanes 4). (F) PDGFRα siRNA treated cells infected with indicated HCMV strains and immunostained for IE1 12 hpi (primary infection). 6 dpi, supernatants were used to infect naïve HEL cells, followed by IE1 immunostaining and quantification (secondary infection). Average (n=6) values±S.D. are shown.
HUVEC cells were pre-treated with IMC-3G3 (10 μg/ml, Imclone, 12 h), or Gleevec (100 nM, 1 h) prior to HCMV or mock infection. 12 hours post-infection, cell lysates were analyzed by western blot for the presence of IE1 gene product. […] The same blot was stripped and re-probed for actin (lower panel). Lane designation is 1—Mock, 2—HCMV, 3—IMC-3G3+HCMV, 4—Gleevec+HCMV.
Upper panel: HEL cells pretreated with anti-human PDGFRα antibody (10 ng/ml, for 30 min, clone AF-307-NA from R&D; lanes 1 and 3) or with AG 1295 (lane 4, […], from Calbiochem) were stimulated with Towne HCMV (lanes 2 through 4) or Mock infected (lane 1) for 10 min at 37 C. Cells were washed and further incubated for 2 h at 37 C (to allow expression of IE1 gene product). Afterwards, cells were harvested in RIPA buffer and processed for western blotting as described.
Western Blot, Immunoprecipitation, and Immunofluorescence analyses. For stimulation experiments, cells were serum-starved for 24 h, followed by stimulation with HCMV (MOI of 0.5), PDGF-AA (5-10 ng/ml, from R&D Systems), or mock, for 10 minutes. In some cases, cells were pre-treated with IMC-3G3 (ImClone Inc.) at 10 µg/ml (2 or 12 h) or Gleevec® (100 nM, 1 h) prior to HCMV exposure. Cell lysates were analyzed by SDS-PAGE. Antibodies used were as follows: polyclonal anti-PDGFRα ( 1/500), phosphor-Tyrosine clone 4G10 ( 1/1000), and monoclonal anti-p85 PI3-K ( 1/1000), (Upstate Biotechnology), anti HCMV IE1 MAB810 (Chemicon; 1/1000), anti HCMV pp65 (Novocastra, 1/1000), anti-phosphor-PDGFRα ( 1/500, pTyr 754), anti-phosphor-Akt (Ser 473, 1/1000) and total Akt ( 1/1000; all from Cell Signaling). Anti-actin polyclonal control antibody was used ( 1/500, Sigma). Immunoprecipitations were performed using protein G (Pierce) according to manufacturer's instructions. For immunofluorescence, monoclonal HCMV pp65 and phosphor-PDGFRα (p-Tyr 754, Santa Cruz Biotechnology) were used, overnight at 4° C., followed by 1 hour incubation with secondary antibodies conjugated to Alexa-488, or Alexa 568 ( 1/5,000, Molecular Probes). Nuclei were counterstained with DAPI. Co-immunoprecipitation experiments were performed using full length soluble purified recombinant gB (gB 680, from Don Diamond, City of Hope, Calif.) and detergent soluble extract of HEL cells generated in lysis buffer (1% NP-40, 75 mM NaCl and 50 mM Tris-HCl). 500 μg of protein from total cell extract was incubated with 25 μg of gB 680 in lysis buffer in the presence of an anti-gB (Virusys, Inc) or anti-PDGFRα (R&D) antibody overnight at 4° C. Immune complexes were recovered with protein A-Sepharose beads (2 hr incubation), denatured and separated on SDS-PAGE for western blot with anti-gB (Virusys, Inc) or anti-PDGFRα (Cell Signaling Technology) antibodies.

HCMV [4] = experiment: Viral attachment and internalization assay (pp65 immunofluorescence); assay type: cell-based, Human cytomegalovirus
Description: (A) HEL cells were pretreated with PBS (20 min 4° C.), IMC-3G3 (2 h, 37° C., 10 μg/ml), or PDGF-AA (20 min, 4° C., 10 ng/ml) prior to infection with HCMV (MOI of 1, 4° C., 1 h). Cells were returned to 37° C. for 30 minutes, and processed for pp65^HCMV and PDGFRα double immunofluorescence. […] All conditions were assayed in triplicate cultures. One hundred cells in 4 low magnification fields were counted. Bars represent SD.
Viral Attachment and Internalization Assays. Mouse fibroblasts and HEL cells (72 hours following siRNA transfections) were incubated with HCMV (MOI of 0.5) or mock treated for 1 hour at 4° C., after which cells were returned to 37° C. for 15, 30, or 60 min. Cells were fixed using methanol (20 min) and processed for pp65 immunofluorescence. Four low power fields were counted for each condition and pp65 positive were recorded for each 100 cells. Internalization assays were repeated twice.

[5] = human epithelial, endothelial, and fibroblast cells

Molecule: Cc1cc2ncc(-c3ccccc3)nc2cc1C [AG1295, reference compound]
- p-Akt levels induced by either PDGF or HCMV (PI3-K/Akt signaling; HEL pretreated with blocking reagents 30 min, 37 C, stimulated 10 min with HCMV or PDGF-AA 5 ng/ml): decreased
- amount of pp65 (anti-pp65 blot) (HCMV [1]): decrease
- IE1 levels (HCMV [2]): significant decrease

Molecule: Cc1ccc(NC(=O)c2ccc(CN3CCN(C)CC3)cc2)cc1Nc1nccc(-c2cccnc2)n1 [Gleevec, 4-[(4-methylpiperazin-1-yl)methyl]-N-[4-methyl-3-[(4-pyridin-3-ylpyrimidin-2-yl)amino]-phenyl]-benzamide, reference compound]
- HCMV IE1 gene expression (HCMV [3]; HEL cells): completely inhibited
- HCMV IE1 expression (HCMV [3]; HUVEC, pre-treated with IMC-3G3 10 μg/ml 12 h or Gleevec 100 nM 1 h, western blot 12 hours post-infection): completely inhibited
- HCMV IE1 gene expression (HCMV [3]; U87 glioma cells): completely inhibited
- HCMV gene expression (HCMV [3]; [5]): completely inhibited
- HCMV viral internalization (HCMV [4]; [5]): completely inhibited
- Akt phosphorylation induced by either HCMV or PDGF-AA (PI3-K/Akt signaling; HEL, 10 min stimulation, IMC-3G3 2 μg/ml or Gleevec 100 nM, p-Akt Ser 473): abolished

Molecule: PDGF-AA: the authentic (genuine) PDGFRα ligand, from R&D Systems [reference compound]
- HCMV entry (HCMV [4]; HEL cells harboring endogenous PDGFRα, pretreatment with PDGF-AA): significantly decreased; also recorded: competitively inhibited
- inhibition of HCMV entry (pp65 positive cells) (HCMV [4]; HEL cells, IMC-3G3 2 h, 37° C., 10 μg/ml, PDGF-AA 20 min, 4° C., 10 ng/ml, HCMV MOI of 1, 30 min at 37° C.): ~30%
